Source: patent US11434490B2, “Fluorogen-binding RNA aptamers” (CENTRE NATIONAL DE LA RECHERCHE SCIENTIFIQUE, priority 2017, dated 2022)
Values joined by “and” are separate entries in the source; they are usually repeats but may differ in a detail not shown here. Equal values may be shown once.

What was measured:
[1] = Fluorescence titration, binding affinity for TO3-Biotin; settings: ligand TO3-B (TO3-Biotin)
Source text: FIG. 2|RNA Mango I, II, III and IV core sequences and their properties. (a) Color coded alignment of RNA Mango I, II, III and IV. G residues in yellow are protected from DMS cleavage (data from panel d) when folded in the presence of fluorophore. Quadruplex stacks and their associated propeller sequences are numbered 1 through 4. The GAAA isolation motif of Mango I, together with two adenines essential for binding, are shown in green and red respectively. Purple shading represents a flanking stem region common for all four Mango aptamers. Schematic: A tertiary structure schematic of Mango I, showing tier 1, 2 and 3 of its quadruplex structure (T1, T2 and T3) and color-coded as in (a). […] Bottom: Top view of the Mango I core (PBD ID: 5V3F), showing the T3 tier of the quadruplex and relevant propeller residues, color coding matches the schematic and panel a. […] KD values are shown next to each titration. (c) Same as for panel b but using 20 nM TO3-Biotin. Data for panels b and c have been normalized such that Mango I has a maximum fluorescence of 1. Error bars are standard deviation of three replicates. (d) DMS chemical protection patterns for the four Mango aptamers. 3′ end-labelled RNA (terminal ^32pCp shown as a black asterisk) was subjected to DMS chemical modification followed by reduction by NaBH4 and aniline cleavage as described in the methods. […] Legend: T1—denatured T1 ladder; OH—partial alkaline hydrolysis ladder; (−) DMS—denatured reaction with ddH2O added in place of DMS; 80° C.
Fluorescence data was gathered using a Varian Cary Eclipse Spectrophotometer unless otherwise stated. […] Fluorescence was measured at the maximum excitation and emission wavelengths of each complex (FIG. 13).
Or to the following equation for TO3-Biotin and NMM experiments: F([RNA])=Fmax[RNA]/(KD+[RNA])+Funbound (Eq. 2) Fmax was determined using Eq. 1 or Eq. 2 as appropriate. Temperature Dependent Fluorescence and UV Melting Curves
(§1) Fluorescence readings were recorded using a Varian Cary Eclipse Spectrophotometer set to measure at the maximum excitation and emission wavelengths of the Mango II aptamer dye complex. Fluorescence titrations were performed in Mango selection buffer (WB: 140 mM KCl, 1 mM MgCl2, 10 mM NaH2PO4 pH 7.2, 0.05% Tween-20).

[2] = Fluorescence titration, binding affinity for TO1-PA; settings: ligand TO1-PA
Source text: (§2) We determined the affinity and fluorescence enhancement of four compounds: TO1-OAc (TO1-acetate), TO1-ME (TO1-methylester), TO1-PA (TO1-propanylamide), TO1-PE (TO1-pentenoylester) (FIG. 42, Table 8 & 9). Binding affinity and fluorescence enhancement of TO1-OAc is drastically diminished, and nearly identical between the wild-type and A22U mutant. […] Further extension of the linker stabilizes the binding pocket by stacking on T3 but becomes sterically hindered by a bulky purine in position 22. The A22U mutation would limit steric clashes while preventing misfolding of the G-quadruplex core. Thus, the improved properties of the Mango-II A22U mutant may arise from improved packing of the linker of the fluorophore with an RNA with a homogeneous or predominant conformation.
as §1

[3] = Fluorescence titration, binding affinity for TO1-PE; settings: ligand TO1-PE
Source text: as §2, §1

[4] = Fluorescence enhancement of TO3-Biotin; format: biochemical; settings: ligand TO3-B; 0.82 μM ligand, 2 μM RNA
Description: (§3) The bandwidth for all measurements was 1.5 nm for all experiments. Measurements were performed in a 0.2 cm path length cuvette in a background of 20 mM MOPS pH 7.0, 150 mM KCl, 10 μM EDTA. Fluorescence readings were taken in the absence of RNA at a ligand concentration of 0.82 μM. A concentrated, annealed stock of RNA was then added to the cuvette resulting in a final concentration of 2 μM RNA and allowed to equilibrate for 1 minute prior to taking an emission reading. Fluorescence enhancement was determined by dividing the fluorescence signal of ligand in the presence of RNA by the fluorescence signal in the absence of RNA corrected for the background of the instrument.

[5] = Fluorescence enhancement of TO1-OAc; format: biochemical; settings: ligand TO1-OAc
Description: as §3

[6] = Fluorescence enhancement of TO1-PE; format: biochemical; settings: ligand TO1-PE
Description: as §3

Molecule	Kd [1]	Kd [2] [nM]	Kd [3] [nM]	FIE (fluorescence enhancement) [4]	FIE (fluorescence enhancement) [5]	FIE (fluorescence enhancement) [6]
Mango-II: minimal construct engineered from isolate R2-1; SEQ ID NO: 6902 GCGUACGAAGGAGAGGAGAGGAAGAGGAGAGUACGC (chemistry not given here)	1.4 nM and ~1.4 nM	1.04 ± 0.57	0.37 ± 0.06	61 ± 2	258 ± 10	783 ± 13
Mango II - A22U: Mango-II point mutant; SEQ ID NO: 6903 / 6905 (nucleic acid, chemistry not given here) chain 1: GCGUACGAAGGAGAGGAGAGGUAGAGGAGAGUACGC chain 2: GGCACGUACGAAGGAGAGGAGAGGUAGAGGAGAGUACGUGC	5 ± 2.8 nM	2.21 ± 1.09	1 ± 0.13	46 ± 3	315 ± 4	825 ± 14
